The term IC50 denotes the concentration needed to halve the response being measured. As a reminder, the EC50 is the concentration that produces a half-maximal response. For orientation: AC50 means the midpoint of the concentration-response curve, whichever way the signal moves.

The subject of one assay is MDA-MB-435. Kind of assay: cells. The conditions noted are these: Homo sapiens. The assay is classed as functional, cell-based.
The next assay in a line: cells. To be noted: PPC-1. It counts as functional, cell-based.
Assay [1] has as its target Metabotropic glutamate receptor 4 (Rattus norvegicus, UniProt P31423). Kind of assay: Modulation of the Metabotropic Glutamate Receptor mGluR4: Rat PAM Potency. [Related pubchem assays (depositor defined):AID2437, AID2807]. It counts as functional.
Assay [2] concerns the target Voltage-gated N-type calcium channel alpha-1B subunit/Amyloid beta A4 precursor protein-binding family A member 1 (Homo sapiens, UniProt Q00975+Q02410). Kind of assay: disruptors of Mint-PDZ/N-type channel peptide interaction – biochemical, HTRF, SAR follow-up (AID 2489). The assay is classed as functional. In general terms: Time-resolved FRET reads energy transfer from a long-lived donor to a nearby acceptor.

Assay [3] deals with Scavenger receptor class B member 1 (Mus musculus, UniProt Q61009). Kind of assay: mouse SR-BI DiI-HDL uptake blockers – ldlA[mSR-BI] cells, fluorescence, cherry pick, dose response (AID 493194).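 Further: cellular uptake of fluorescent DiI-labeled HDL measured as cell fluorescence.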 The assay is classed as functional, cell-based.
Sequence of Scavenger receptor class B member 1 (Q61009 whole entry): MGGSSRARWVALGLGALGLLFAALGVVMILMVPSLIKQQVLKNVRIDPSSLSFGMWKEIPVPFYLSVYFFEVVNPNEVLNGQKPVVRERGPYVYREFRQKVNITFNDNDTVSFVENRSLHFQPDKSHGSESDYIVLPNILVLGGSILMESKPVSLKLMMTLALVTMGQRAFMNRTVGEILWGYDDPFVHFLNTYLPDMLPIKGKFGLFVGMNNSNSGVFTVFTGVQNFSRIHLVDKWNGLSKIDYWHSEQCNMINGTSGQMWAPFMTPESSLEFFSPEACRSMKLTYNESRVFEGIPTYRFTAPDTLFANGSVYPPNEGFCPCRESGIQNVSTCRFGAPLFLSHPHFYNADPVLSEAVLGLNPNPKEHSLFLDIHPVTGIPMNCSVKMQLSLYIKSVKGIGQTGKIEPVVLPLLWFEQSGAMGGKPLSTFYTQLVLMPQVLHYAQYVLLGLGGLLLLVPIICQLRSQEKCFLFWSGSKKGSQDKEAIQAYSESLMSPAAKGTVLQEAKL
The next assay concerns the target Hexokinase (Trypanosoma brucei, UniProt Q38C41). Kind of assay: Confirmation assay for inhibitors of Trypanosoma brucei hexokinase 1-Analogue-first series. [Related pubchem assays (depositor defined):AID1430, AID1632, AID2516, AID2560, AID2579, AID2600, AID449725, AID492951]. It counts as functional.
In assay [4] the test system is Streptococcus sp. 'group A'. Kind of assay: Streptococcus pyogenes SK(-)GAS viability under kanamycin – luminescence, BacTiterGlo, confirmation, counter-screen for streptokinase expression inhibitor project, dose response (AID 1900). The assay is classed as functional, organism-based.
Assay [5] concerns the target NACHT, LRR and PYD domains-containing protein 3 (Homo sapiens, UniProt Q96P20). Kind of assay: NALP3 inhibitors in yeast, dose response, luminescent (AID 488799). The assay is classed as functional.
For another assay, the system named is Streptococcus. Kind of assay: GAS UMAA2166 growth inhibition – luminescence, BacTiterGlo, counter-screen for streptokinase expression inhibitor project, dose response (AID 1915).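 Further: potency for reduction of bacterial viability or growth.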 The assay is classed as functional, organism-based.
The subject of the next assay is INS1. Kind of assay: INS-1E survival protection against cytokine death – cell-based, luminescence, retest, dose response (AID 449756).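 Further: cell death triggered by IL-1 beta plus TNF-alpha plus IFN-gamma mixture; protective hits raise ATP signal compared with cytokine alone wells.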 It counts as functional. To be noted: Rattus norvegicus.

Activity calls are given as the source filed them.

Sequence of Metabotropic glutamate receptor 4 (P31423 whole entry): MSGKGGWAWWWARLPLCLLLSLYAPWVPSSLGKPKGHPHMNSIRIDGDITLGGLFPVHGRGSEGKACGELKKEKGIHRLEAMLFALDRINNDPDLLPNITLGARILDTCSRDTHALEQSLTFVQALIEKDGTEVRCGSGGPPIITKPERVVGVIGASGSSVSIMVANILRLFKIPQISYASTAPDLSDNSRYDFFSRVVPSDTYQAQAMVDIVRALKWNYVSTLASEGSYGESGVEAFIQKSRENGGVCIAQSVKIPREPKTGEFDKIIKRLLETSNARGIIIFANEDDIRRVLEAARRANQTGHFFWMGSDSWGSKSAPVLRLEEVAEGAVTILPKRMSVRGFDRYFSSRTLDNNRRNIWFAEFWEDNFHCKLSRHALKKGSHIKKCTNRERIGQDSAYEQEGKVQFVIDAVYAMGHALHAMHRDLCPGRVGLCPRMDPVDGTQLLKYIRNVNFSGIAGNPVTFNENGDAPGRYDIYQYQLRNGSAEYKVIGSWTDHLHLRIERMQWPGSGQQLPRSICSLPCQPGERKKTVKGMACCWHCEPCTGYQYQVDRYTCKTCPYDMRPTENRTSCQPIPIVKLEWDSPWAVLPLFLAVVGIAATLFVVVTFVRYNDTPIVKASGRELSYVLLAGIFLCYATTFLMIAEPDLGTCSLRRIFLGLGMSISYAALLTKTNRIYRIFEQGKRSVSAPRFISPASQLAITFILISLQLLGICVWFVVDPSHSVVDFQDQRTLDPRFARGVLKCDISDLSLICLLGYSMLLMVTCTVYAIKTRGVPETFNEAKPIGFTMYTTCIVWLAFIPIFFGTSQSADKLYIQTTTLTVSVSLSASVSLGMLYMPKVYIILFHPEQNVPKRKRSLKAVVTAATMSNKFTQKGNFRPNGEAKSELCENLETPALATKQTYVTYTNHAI
Sequence of Voltage-gated N-type calcium channel alpha-1B subunit/Amyloid beta A4 precursor protein-binding family A member 1 (Q00975 whole entry): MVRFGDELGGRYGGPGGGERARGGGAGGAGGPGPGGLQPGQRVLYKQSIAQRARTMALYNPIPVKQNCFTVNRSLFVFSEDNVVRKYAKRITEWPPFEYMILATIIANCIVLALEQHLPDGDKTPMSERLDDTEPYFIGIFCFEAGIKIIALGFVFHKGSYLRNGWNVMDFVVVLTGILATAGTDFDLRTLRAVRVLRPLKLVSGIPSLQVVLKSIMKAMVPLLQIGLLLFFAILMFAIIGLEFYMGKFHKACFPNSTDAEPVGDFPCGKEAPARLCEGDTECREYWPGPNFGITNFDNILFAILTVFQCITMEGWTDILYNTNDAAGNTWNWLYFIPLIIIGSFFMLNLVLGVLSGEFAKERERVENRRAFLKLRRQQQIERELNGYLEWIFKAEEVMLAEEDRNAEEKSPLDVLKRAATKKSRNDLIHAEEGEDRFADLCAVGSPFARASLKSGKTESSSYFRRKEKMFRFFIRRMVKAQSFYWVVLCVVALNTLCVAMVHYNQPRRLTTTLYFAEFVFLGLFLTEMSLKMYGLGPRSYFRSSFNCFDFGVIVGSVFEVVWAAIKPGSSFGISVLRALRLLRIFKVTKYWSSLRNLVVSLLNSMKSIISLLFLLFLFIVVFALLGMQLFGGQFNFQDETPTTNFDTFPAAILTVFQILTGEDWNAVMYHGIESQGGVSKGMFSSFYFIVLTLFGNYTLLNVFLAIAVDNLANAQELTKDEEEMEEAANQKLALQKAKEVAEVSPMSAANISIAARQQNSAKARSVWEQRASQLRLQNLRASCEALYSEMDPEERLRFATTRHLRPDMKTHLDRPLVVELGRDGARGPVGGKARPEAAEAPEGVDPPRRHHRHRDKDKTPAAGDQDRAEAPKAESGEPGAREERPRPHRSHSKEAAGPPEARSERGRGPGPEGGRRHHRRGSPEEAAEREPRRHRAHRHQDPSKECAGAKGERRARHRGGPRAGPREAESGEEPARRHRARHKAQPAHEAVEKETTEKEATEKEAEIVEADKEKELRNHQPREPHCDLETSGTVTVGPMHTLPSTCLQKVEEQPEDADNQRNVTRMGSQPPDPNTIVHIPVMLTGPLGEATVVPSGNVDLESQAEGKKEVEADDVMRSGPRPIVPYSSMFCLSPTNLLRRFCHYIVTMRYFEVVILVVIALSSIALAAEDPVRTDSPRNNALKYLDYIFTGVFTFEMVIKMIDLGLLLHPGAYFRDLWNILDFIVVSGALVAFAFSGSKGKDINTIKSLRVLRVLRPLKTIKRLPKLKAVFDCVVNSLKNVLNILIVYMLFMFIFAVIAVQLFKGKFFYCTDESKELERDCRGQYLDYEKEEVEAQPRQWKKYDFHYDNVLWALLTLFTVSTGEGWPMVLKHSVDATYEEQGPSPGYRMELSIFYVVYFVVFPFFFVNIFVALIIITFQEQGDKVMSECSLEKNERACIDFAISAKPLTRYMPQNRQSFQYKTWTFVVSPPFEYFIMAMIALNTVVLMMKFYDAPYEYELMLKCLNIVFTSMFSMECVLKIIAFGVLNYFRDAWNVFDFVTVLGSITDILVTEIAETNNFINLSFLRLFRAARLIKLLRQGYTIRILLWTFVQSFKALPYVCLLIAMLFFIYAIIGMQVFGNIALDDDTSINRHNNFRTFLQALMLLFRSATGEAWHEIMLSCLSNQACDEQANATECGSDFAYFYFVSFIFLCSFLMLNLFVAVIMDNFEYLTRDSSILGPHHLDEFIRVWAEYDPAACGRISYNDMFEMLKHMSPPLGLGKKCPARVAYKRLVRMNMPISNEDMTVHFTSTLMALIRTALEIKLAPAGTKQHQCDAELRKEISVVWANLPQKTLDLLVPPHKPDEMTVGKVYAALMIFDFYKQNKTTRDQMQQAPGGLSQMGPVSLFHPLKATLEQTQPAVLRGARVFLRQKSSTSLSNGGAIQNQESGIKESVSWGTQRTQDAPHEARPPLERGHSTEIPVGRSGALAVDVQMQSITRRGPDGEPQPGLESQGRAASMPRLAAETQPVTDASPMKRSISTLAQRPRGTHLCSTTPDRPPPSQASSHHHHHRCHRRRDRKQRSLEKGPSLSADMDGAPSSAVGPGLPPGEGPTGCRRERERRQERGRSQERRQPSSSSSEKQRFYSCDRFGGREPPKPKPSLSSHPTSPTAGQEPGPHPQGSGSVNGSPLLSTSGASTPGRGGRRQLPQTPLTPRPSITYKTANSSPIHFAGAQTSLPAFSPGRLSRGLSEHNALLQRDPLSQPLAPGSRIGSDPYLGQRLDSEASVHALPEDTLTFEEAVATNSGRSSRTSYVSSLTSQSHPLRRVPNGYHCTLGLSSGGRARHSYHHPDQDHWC
Sequence of Voltage-gated N-type calcium channel alpha-1B subunit/Amyloid beta A4 precursor protein-binding family A member 1 (Q02410 whole entry): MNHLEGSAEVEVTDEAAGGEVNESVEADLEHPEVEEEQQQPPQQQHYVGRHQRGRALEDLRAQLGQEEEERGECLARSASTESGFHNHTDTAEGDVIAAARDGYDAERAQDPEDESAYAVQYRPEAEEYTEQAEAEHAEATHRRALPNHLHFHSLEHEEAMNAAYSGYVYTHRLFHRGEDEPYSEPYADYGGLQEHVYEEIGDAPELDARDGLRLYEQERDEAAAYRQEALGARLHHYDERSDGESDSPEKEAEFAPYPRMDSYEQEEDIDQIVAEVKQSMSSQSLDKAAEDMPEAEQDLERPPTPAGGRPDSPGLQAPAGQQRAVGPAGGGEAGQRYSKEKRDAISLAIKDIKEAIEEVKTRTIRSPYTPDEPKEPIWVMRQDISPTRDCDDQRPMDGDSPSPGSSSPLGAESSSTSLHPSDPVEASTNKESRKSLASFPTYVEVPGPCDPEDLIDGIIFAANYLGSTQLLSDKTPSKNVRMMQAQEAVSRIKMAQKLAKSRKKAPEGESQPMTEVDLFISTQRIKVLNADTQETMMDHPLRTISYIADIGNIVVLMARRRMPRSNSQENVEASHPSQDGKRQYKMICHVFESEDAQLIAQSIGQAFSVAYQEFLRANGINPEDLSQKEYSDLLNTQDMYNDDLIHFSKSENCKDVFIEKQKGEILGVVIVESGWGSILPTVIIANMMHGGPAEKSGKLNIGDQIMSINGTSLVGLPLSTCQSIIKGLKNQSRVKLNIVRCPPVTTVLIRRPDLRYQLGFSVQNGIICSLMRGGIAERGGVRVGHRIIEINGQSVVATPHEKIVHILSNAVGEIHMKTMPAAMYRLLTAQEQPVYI
Sequence of Hexokinase (Q38C41 whole entry): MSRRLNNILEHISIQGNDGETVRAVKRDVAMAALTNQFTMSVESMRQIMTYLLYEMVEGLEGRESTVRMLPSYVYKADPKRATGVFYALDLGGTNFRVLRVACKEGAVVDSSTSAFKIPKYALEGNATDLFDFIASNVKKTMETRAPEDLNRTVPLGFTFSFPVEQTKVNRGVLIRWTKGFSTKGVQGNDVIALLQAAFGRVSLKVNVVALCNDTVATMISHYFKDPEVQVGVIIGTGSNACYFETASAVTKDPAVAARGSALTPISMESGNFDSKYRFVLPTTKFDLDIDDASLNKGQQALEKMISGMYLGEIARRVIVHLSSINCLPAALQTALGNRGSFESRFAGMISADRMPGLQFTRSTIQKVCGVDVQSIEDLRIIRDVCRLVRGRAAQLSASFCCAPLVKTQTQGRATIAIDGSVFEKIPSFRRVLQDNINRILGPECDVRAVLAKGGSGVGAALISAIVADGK

On to `CSc1nc(-c2ccccc2)nc(-c2ccccc2OC(C)=O)n1`, for which the IC50 in the assay with MDA-MB-435 and in “cells” was > 10 µM (inactive) in each case.

As to `O=C(Nc1ccc(NC(=O)c2ccccc2Cl)c(Cl)c1)c1ccccn1`, the EC50 in [1] is 0.75 µM (active).

On to `CCOC(=O)N1CCN(C(=O)c2ccc3nc(-c4ccco4)c(-c4ccco4)nc3c2)CC1`, for which the IC50 in assay [2] is 42.5 µM (active).

On to `COc1cc(OC)cc(C(=O)Nc2cccc(NC(=O)c3cc(OC)cc(OC)c3)n2)c1`, for which the AC50 in [3] was 45.9 µM (active).

Consider `O=C1CCN(C(=O)Nc2cc(Cl)ccc2C(=O)O)CC1`, for which the IC50 on Hexokinase is > 25 µM (inactive).

In the case of `CC(=O)Oc1c(I)cc(I)cc1C(=O)Nc1ccc(Cl)cc1` [CLIOXANIDE], the EC50 is 0.377 µM (active) in [4] and 0.76 µM (active) with Streptococcus. Also, in [5], the IC50 was 1.61 µM (active). For the same compound, in the assay on INS1, the AC50 was 12.5 µM (active).

These data come from ChEMBL document CHEMBL1201862, “PubChem BioAssay data set” (2004).
